Entries after “also recorded” stand apart in the source; their conditions may differ. Bounds are passed on as bounds.

The subject of one experiment is monoclonal antibodies DD-1, DD-3, DD-4, DD-5 and DD-6. As to the kind of experiment: Competition ELISA, statements for all antibodies together. Format: binding, BALB/c and Biozzi mice. The following applies: all antibodies. As to the method: (§1) In this case the hybridomas were then screened for their ability to distinguish A-triCDD-BSA and A-triCDD-RSA from BSA and RSA. On the basis of this initial screen about 25 stable, antibody-producing colonies were isolated, subcloned, and frozen. The remaining clones were again screened for their abilities to recognize free TCDD in suspension. Experimentally, on the order of 10-100 nanograms of TCDD in hexane was dried, 0.5 ml of saline with BSA (1 mg/ml) was added and sonificated for 2 hrs. […] Identical procedures were followed for other dioxin isomers. A dilution series in microtiter plate wells was then made with the suspended TCDD, antibody adde, and the competition ELISA completed. Competition ELISA test procedures are discussed in detail in the following reference: Butt, W. R. (1984) "Practical Immunoassay: The State of the Art", Marcel Dekker, Inc., N.Y., N.Y.
(§2) A large part of the success that we have had in characterizing the binding specificities of our monoclonal antibodies comes from having developed a reliable competition ELISA protocol. Our preferred assay starts from stock solutions at 10 ppm in hexane of the various compounds listed in Table I. 10 μl of hexane solution is aliquoted into a small vial, evaporated under a stream of nitrogen gas, and 500 μl of a 1 mg/ml solution of BSA in phosphate buffered saline with 0.1% BSA is added. The vial is capped and placed in an ultrasonic cleaning waterbath for two hours. Two hours of sonification gives a more reproducible assay than does an hour. During the sonification, the hexane appears to evaporate completely, and one is left with an aqueous solution containing the dioxin. Microtiter plates coated with A-triCDD-RSA are blocked with a three percent solution of ovalbumin and a two-fold dilution series of sonificated dioxin-BSA is then made, covering the range 100 ppb-0.1 ppb. In each well of the plate 100 μl of the sonificated dioxin-BSA solution is mixed with n equal volume of antibody. The antibody partitions between the dioxin adsorbed to the BSA, and the A-tri-CDD-RSA on the plate.
(§3) A-TriCDD-RSA was adsorbed onto the surface of the wells of a microtiter plate. The various competitors listed were suspended in saline containing bovine serum albumin (BSA). These solutions were made by sonificating 10 μl of dioxin solution in hexane with 500 μl of saline-BSA. A dilution series of these dioxin-BSA solutions was then made covering the range of 100-0.2 ppb, and placed in the microtiter plate wells. An equal volume of DD-1 monoclonal antibody was then added, and allowed to react for 1 hour. Tne antibody binds either to the A-TriCDD-RSA on the plate or the dioxin in solution. After the hour, the solution phase is removed, the plate washed, and it is reincubated for an hour with peroxidase-conjugated goat-anti-mouse-immunoglobulins. A second washing is then done, and substrate (ABTS) added to the peroxidase. The enzyme-antibody conjugate and substrate function as a "developer", allowing the visualization of the DD-1 bound to the A-triCDD-RSA on the plate. Results are then expressed as a fraction of the response in wells with no competitor. […] At about 20 ppb of 2,3,7,8-TCDD the relative ELISA response is half of control, meaning that half the DD-1 antibody bound to the solution phase dioxin and half bound to the A-triCDD-RSA on the plate. For 1,2,3,7(8)-TCDD, 50% inhibition occurs at about 4 ppb, indicating the DD-1 prefers 1,2,3,7(8)-TCDD to 2,3,7,8-TCDD.
(§4) The FIGURE and Table II show representative competition data using several chlorinated compounds as competitors. From such data, one can determine the concentration required to inhibit antibody binding by 50% (I50). Table II lists the I50 for all compounds tested with the antibodies. In reporting these values, factors of two are about the limit of significance. […] The binding specificities of these antibodies are highly desirable, since they prefer the most toxic of the dioxin and dibenzofuran isomers.
On to `Clc1cc2c(cc1Cl)Oc1cc(Cl)c(Cl)cc1O2` [2,3,7,8-TCDD, 2,3,7,8-tetrachlorodibenzo-p-dioxin], for which the “affinity / recognition by all antibodies” value is listed as “slightly less affinity; also recorded: recognize”.

For the compound `Clc1cc(Cl)c2c(c1)Oc1cc(Cl)c(Cl)cc1O2` [1,3,7,8-TCDD], the “affinity / recognition by all antibodies” value was “highest affinity”.

The experiment is the same for the next values; noted with them: up to the highest concentration tested (100 ppb).
With `Clc1c(Cl)c(Cl)c2c(oc3c(Cl)c(Cl)c(Cl)c(Cl)c32)c1Cl` [Octachloro-DBF], the “reactivity of all antibodies with competitor” value was “either do not react or react only marginally”.

A further experiment concerns the target monoclonal antibody DD-3. The experiment can be described thus: Competition ELISA with monoclonal antibody DD-3. Format: binding, BALB/c mice. Conditions: competitor vs monoclonal antibody DD-3; plate coated with A-triCDD-RSA. As to the method:
as §1, §2, §3, §4
As to `Clc1c(Cl)c(Cl)c2c(oc3c(Cl)c(Cl)c(Cl)c(Cl)c32)c1Cl` [Octachloro-DBF], the “I50 (inhibits antibody binding by 50%)” value was above 200 ng.

For `Clc1cc2c(cc1Cl)Oc1cc(Cl)c(Cl)cc1O2` [2,3,7,8-TCDD, 2,3,7,8-tetrachlorodibenzo-p-dioxin], the “I50 (inhibits antibody binding by 50%)” value is recorded as 3 ng.

`Oc1cc(Cl)c(Cl)cc1Cl` [2,4,5-Trichlorophonol]: the “I50 (inhibits antibody binding by 50%)” value is given as above 2000 ng.

`OCC(Cl)(Cl)Cl` [2,2,2-Tricholoroethanol, 2,2,2-Tricholoro-ethanol]: the “I50 (inhibits antibody binding by 50%)” value is given as above 2000 ng.

Take `O=[N+]([O-])c1cc(Cl)ccc1Cl` [2,5-Dichloronitrobenzene, 2,5-Dichloronitro-benzene]: the “I50 (inhibits antibody binding by 50%)” value turned out to be 2000 ng.

Take `Nc1c(Cl)ccc2c1Oc1cc(Cl)c(Cl)cc1O2` [1-amino-2,7,8-TriCDD]: the “I50 (inhibits antibody binding by 50%)” value is given as above 0.04 ng.

As to `ClC1=C(Cl)C2(Cl)C3C4C=CC(C4)C3C1(Cl)C2(Cl)Cl` (stereo not drawn) [Aldrin], the “I50 (inhibits antibody binding by 50%)” value is above 2000 ng.

Turning to `Clc1cc(Cl)c2c(c1Cl)Oc1ccccc1O2` [1,2,4-Tri-CDD], the “I50 (inhibits antibody binding by 50%)” value is above 200 ng.

Take `Clc1cc(Cl)c2c(c1)Oc1cc(Cl)c(Cl)cc1O2` [1,3,7,8-TCDD]: the “I50 (inhibits antibody binding by 50%)” value is reported as 0.15 ng.

The next experiment deals with monoclonal antibody DD-6. As to the kind of experiment: Competition ELISA with monoclonal antibody DD-6. Format: binding, Biozzi mice. The following applies: competitor vs monoclonal antibody DD-6; plate coated with A-triCDD-RSA. How it is done: as §1, §2, §3, §4
For `Clc1c(Cl)c(Cl)c2c(oc3c(Cl)c(Cl)c(Cl)c(Cl)c32)c1Cl` [Octachloro-DBF], the “I50 (inhibits antibody binding by 50%)” value is recorded as above 200 ng.

Consider `Clc1cc2c(cc1Cl)Oc1cc(Cl)c(Cl)cc1O2` [2,3,7,8-TCDD, 2,3,7,8-tetrachlorodibenzo-p-dioxin], for which the “I50 (inhibits antibody binding by 50%)” value is given as 6 ng.

As to `Oc1cc(Cl)c(Cl)cc1Cl` [2,4,5-Trichlorophonol], the “I50 (inhibits antibody binding by 50%)” value was above 2000 ng.

Take `OCC(Cl)(Cl)Cl` [2,2,2-Tricholoroethanol, 2,2,2-Tricholoro-ethanol]: the “I50 (inhibits antibody binding by 50%)” value is listed as above 2000 ng.

Regarding `O=[N+]([O-])c1cc(Cl)ccc1Cl` [2,5-Dichloronitrobenzene, 2,5-Dichloronitro-benzene], the “I50 (inhibits antibody binding by 50%)” value was determined as 700 ng.

With `Nc1c(Cl)ccc2c1Oc1cc(Cl)c(Cl)cc1O2` [1-amino-2,7,8-TriCDD], the “I50 (inhibits antibody binding by 50%)” value worked out at 0.02 ng.

As for `ClC1=C(Cl)C2(Cl)C3C4C=CC(C4)C3C1(Cl)C2(Cl)Cl` (stereo not drawn) [Aldrin], the “I50 (inhibits antibody binding by 50%)” value is above 2000 ng.

For the compound `Clc1cc(Cl)c2c(c1Cl)Oc1ccccc1O2` [1,2,4-Tri-CDD], the “I50 (inhibits antibody binding by 50%)” value is on record as above 200 ng.

On to `Clc1cc(Cl)c2c(c1)Oc1cc(Cl)c(Cl)cc1O2` [1,3,7,8-TCDD], for which the “I50 (inhibits antibody binding by 50%)” value was 1 ng.

The next experiment has as its target monoclonal antibody DD-4. As to the kind of experiment: Competition ELISA with monoclonal antibody DD-4. Format: binding, BALB/c mice. Conditions: competitor vs monoclonal antibody DD-4; plate coated with A-triCDD-RSA. As to the method: as §1, §2, §3, §4
`Clc1c(Cl)c(Cl)c2c(oc3c(Cl)c(Cl)c(Cl)c(Cl)c32)c1Cl` [Octachloro-DBF]: the “I50 (inhibits antibody binding by 50%)” value was above 200 ng.

`Clc1cc2c(cc1Cl)Oc1cc(Cl)c(Cl)cc1O2` [2,3,7,8-TCDD, 2,3,7,8-tetrachlorodibenzo-p-dioxin]: the “I50 (inhibits antibody binding by 50%)” value came to 5 ng.

Regarding `Oc1cc(Cl)c(Cl)cc1Cl` [2,4,5-Trichlorophonol], the “I50 (inhibits antibody binding by 50%)” value was above 2000 ng.

As for `OCC(Cl)(Cl)Cl` [2,2,2-Tricholoroethanol, 2,2,2-Tricholoro-ethanol], the “I50 (inhibits antibody binding by 50%)” value is reported as above 2000 ng.

As to `O=[N+]([O-])c1cc(Cl)ccc1Cl` [2,5-Dichloronitrobenzene, 2,5-Dichloronitro-benzene], the “I50 (inhibits antibody binding by 50%)” value is listed as above 2000 ng.

`Nc1c(Cl)ccc2c1Oc1cc(Cl)c(Cl)cc1O2` [1-amino-2,7,8-TriCDD]: the “I50 (inhibits antibody binding by 50%)” value is reported as above 0.01 ng.

Take `ClC1=C(Cl)C2(Cl)C3C4C=CC(C4)C3C1(Cl)C2(Cl)Cl` (stereo not drawn) [Aldrin]: the “I50 (inhibits antibody binding by 50%)” value is on record as above 2000 ng.

As for `Clc1cc(Cl)c2c(c1Cl)Oc1ccccc1O2` [1,2,4-Tri-CDD], the “I50 (inhibits antibody binding by 50%)” value is above 200 ng.

`Clc1cc(Cl)c2c(c1)Oc1cc(Cl)c(Cl)cc1O2` [1,3,7,8-TCDD]: the “I50 (inhibits antibody binding by 50%)” value is on record as above 2 ng.

A further experiment has as its target monoclonal antibody DD-5. As to the kind of experiment: Competition ELISA with monoclonal antibody DD-5. Conditions: competitor vs monoclonal antibody DD-5; plate coated with A-triCDD-RSA. Format: binding, Biozzi mice. How it is done:
as §1, §2, §3, §4
As to `Clc1c(Cl)c(Cl)c2c(oc3c(Cl)c(Cl)c(Cl)c(Cl)c32)c1Cl` [Octachloro-DBF], the “I50 (inhibits antibody binding by 50%)” value was above 10 ng.

As for `Clc1cc2c(cc1Cl)Oc1cc(Cl)c(Cl)cc1O2` [2,3,7,8-TCDD, 2,3,7,8-tetrachlorodibenzo-p-dioxin], the “I50 (inhibits antibody binding by 50%)” value is recorded as 0.5 ng.

Take `Oc1cc(Cl)c(Cl)cc1Cl` [2,4,5-Trichlorophonol]: the “I50 (inhibits antibody binding by 50%)” value is reported as above 2000 ng.

`OCC(Cl)(Cl)Cl` [2,2,2-Tricholoroethanol, 2,2,2-Tricholoro-ethanol]: the “I50 (inhibits antibody binding by 50%)” value was above 2000 ng.

For `O=[N+]([O-])c1cc(Cl)ccc1Cl` [2,5-Dichloronitrobenzene, 2,5-Dichloronitro-benzene], the “I50 (inhibits antibody binding by 50%)” value worked out at 2000 ng.

As to `Nc1c(Cl)ccc2c1Oc1cc(Cl)c(Cl)cc1O2` [1-amino-2,7,8-TriCDD], the “I50 (inhibits antibody binding by 50%)” value is reported as above 0.02 ng.

Regarding `ClC1=C(Cl)C2(Cl)C3C4C=CC(C4)C3C1(Cl)C2(Cl)Cl` (stereo not drawn) [Aldrin], the “I50 (inhibits antibody binding by 50%)” value was above 2000 ng.

As to `Clc1cc(Cl)c2c(c1Cl)Oc1ccccc1O2` [1,2,4-Tri-CDD], the “I50 (inhibits antibody binding by 50%)” value was above 10 ng.

The next experiment has as its system monoclonal antibody DD-1. As to the kind of experiment: Competition ELISA with monoclonal antibody DD-1. Format: binding, Biozzi mice. The following applies: FIGURE; DD-1; competitor in saline-BSA, dilution series 100-0.2 ppb. As to the method:
as §1, §2, §3, §4
For the compound `Clc1cc2c(cc1Cl)Oc1cc(Cl)c(Cl)cc1O2` [2,3,7,8-TCDD, 2,3,7,8-tetrachlorodibenzo-p-dioxin], the “concentration at which 50% inhibition occurs (relative ELISA response half of control)” value was “about 20 ppb”.

The experiment is the same for the next values; noted with them: competitor vs monoclonal antibody DD-1; plate coated with A-triCDD-RSA.
Regarding `Clc1c(Cl)c(Cl)c2c(oc3c(Cl)c(Cl)c(Cl)c(Cl)c32)c1Cl` [Octachloro-DBF], the “I50 (inhibits antibody binding by 50%)” value was above 200 ng.

With `Clc1cc2c(cc1Cl)Oc1cc(Cl)c(Cl)cc1O2` [2,3,7,8-TCDD, 2,3,7,8-tetrachlorodibenzo-p-dioxin], the “I50 (inhibits antibody binding by 50%)” value was determined as 1 ng.

For the compound `Oc1cc(Cl)c(Cl)cc1Cl` [2,4,5-Trichlorophonol], the “I50 (inhibits antibody binding by 50%)” value came out at 800 ng.

With `OCC(Cl)(Cl)Cl` [2,2,2-Tricholoroethanol, 2,2,2-Tricholoro-ethanol], the “I50 (inhibits antibody binding by 50%)” value is reported as above 2000 ng.

With `O=[N+]([O-])c1cc(Cl)ccc1Cl` [2,5-Dichloronitrobenzene, 2,5-Dichloronitro-benzene], the “I50 (inhibits antibody binding by 50%)” value is listed as 90 ng.

As for `Nc1c(Cl)ccc2c1Oc1cc(Cl)c(Cl)cc1O2` [1-amino-2,7,8-TriCDD], the “I50 (inhibits antibody binding by 50%)” value is on record as 0.2 ng.

On to `ClC1=C(Cl)C2(Cl)C3C4C=CC(C4)C3C1(Cl)C2(Cl)Cl` (stereo not drawn) [Aldrin], for which the “I50 (inhibits antibody binding by 50%)” value is recorded as above 2000 ng.

As to `Clc1cc(Cl)c2c(c1Cl)Oc1ccccc1O2` [1,2,4-Tri-CDD], the “I50 (inhibits antibody binding by 50%)” value is listed as above 200 ng.

Consider `Clc1cc(Cl)c2c(c1)Oc1cc(Cl)c(Cl)cc1O2` [1,3,7,8-TCDD], for which the “I50 (inhibits antibody binding by 50%)” value is reported as 0.2 ng.

The record behind these values is US4798807A, “Monoclonal antibodies and method for detecting dioxins and dibenzofurans” (priority 1986, dated 1989).
